Here are results for 7 compounds from patent US20240376099A1, “COMPOUNDS AND COMPOSITIONS AS INHIBITORS OF ENDOSOMAL TOLL-LIKE RECEPTORS” (Novartis AG, priority 2016, published 2024).

In the experiment the target is T1, TLR7 (Homo sapiens, UniProt Q9NYK1).
T1 construct: Fresh blood was collected from normal human donors; endogenous in cells; host or cells: human PBMCs from fresh donor blood
T1 sequence (Q9NYK1 27-1049): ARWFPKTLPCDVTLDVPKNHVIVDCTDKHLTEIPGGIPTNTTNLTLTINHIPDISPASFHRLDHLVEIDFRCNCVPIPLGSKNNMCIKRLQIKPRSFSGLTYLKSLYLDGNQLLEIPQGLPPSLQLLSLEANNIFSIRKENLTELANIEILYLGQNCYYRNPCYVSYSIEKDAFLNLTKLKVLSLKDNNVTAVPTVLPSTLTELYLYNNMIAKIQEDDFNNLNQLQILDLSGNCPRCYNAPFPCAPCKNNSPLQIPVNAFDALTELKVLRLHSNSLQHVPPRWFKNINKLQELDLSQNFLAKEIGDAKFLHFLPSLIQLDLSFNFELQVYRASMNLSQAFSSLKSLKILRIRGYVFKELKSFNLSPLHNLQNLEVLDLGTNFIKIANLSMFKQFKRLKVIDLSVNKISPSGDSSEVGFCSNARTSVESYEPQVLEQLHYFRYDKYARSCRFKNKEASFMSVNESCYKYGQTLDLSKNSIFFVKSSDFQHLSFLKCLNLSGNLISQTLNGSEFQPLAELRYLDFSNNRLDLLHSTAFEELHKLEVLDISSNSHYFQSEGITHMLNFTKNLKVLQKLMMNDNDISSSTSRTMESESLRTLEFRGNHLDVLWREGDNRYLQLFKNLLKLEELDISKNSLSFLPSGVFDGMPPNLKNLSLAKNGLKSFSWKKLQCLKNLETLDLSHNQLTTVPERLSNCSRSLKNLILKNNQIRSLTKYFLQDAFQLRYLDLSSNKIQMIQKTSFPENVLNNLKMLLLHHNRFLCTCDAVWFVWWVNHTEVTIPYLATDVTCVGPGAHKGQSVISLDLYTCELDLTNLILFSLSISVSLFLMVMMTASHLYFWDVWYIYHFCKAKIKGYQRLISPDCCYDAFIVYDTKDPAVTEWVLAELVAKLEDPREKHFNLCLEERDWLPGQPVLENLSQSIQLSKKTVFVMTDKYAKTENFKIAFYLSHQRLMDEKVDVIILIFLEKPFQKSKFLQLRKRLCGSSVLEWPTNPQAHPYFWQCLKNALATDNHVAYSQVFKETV
The experiment in a line: huPBMC TLR7 Antagonist IFNα Assay. The experiment is classed as cell-based. The conditions noted are these: human PBMCs stimulated with ssRNA40 10 μg/mL (DOTAP), 14-16 hrs; IFNα2b AlphaLISA read-out. In a few lines:
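Human PBMCs from fresh donor blood (150,000 cells/well) stimulated 14–16 h at 37 °C with DOTAP-complexed ssRNA40 (final 1 μg/ml for TLR8, 10 μg/mL for TLR7) or ODN2216 (final 0.3 μM, TLR9), 0.25% DMSO, ten-point 1/3 compound dilutions. Supernatant IL-6 read by HTRF (TLR8); IFNα by IFNα2b AlphaLISA (TLR7/TLR9).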
Broadly, the IC50 is the point on the concentration scale where inhibition reaches its midpoint. For the compound `Cc1cc(N2CCc3c(c(C)nn3CC34CCC(NC(C)C)(CC3)CC4)C2)c2cnn(C)c2n1` [compound 55, 4-((5-(1,6-dimethyl-1H-pyrazolo[3,4-b]pyridin-4-yl)-3-methyl-4,5,6,7-tetrahydro-1H-pyrazolo[4,3-c]pyridin-1-yl)methyl)-N-isopropylbicyclo[2.2.]octan-1-amine], the IC50 came to 5 nM.

As to `Cc1cc(N2CCc3c(c(C)nn3CC34CCC(N5CCCC5)(CC3)CC4)C2)c2cnn(C)c2n1` [Compound No. 58, 5-(1,6-dimethyl-1H-pyrazolo[3,4-b]pyridin-4-yl)-3-methyl-1-((4-(pyrrolidin-1-yl)bicyclo[2.2.2]octan-1-yl)methyl)-4,5,6,7-tetrahydro-1H-pyrazolo[4,3-c]pyridine], the IC50 was determined as 3 nM.

Consider `CCNC12CCC(Cn3nc(C)c4c3CCN(c3cc(C)nc5c3cnn5C)C4)(CC1)CC2` [compound 57, 4-((5-(1,6-dimethyl-1H-pyrazolo[3,4-b]pyridin-4-yl)-3-methyl-4,5,6,7-tetrahydro-1H-pyrazolo[4,3-c]pyridin-1-yl)methyl)-N-ethylbicyclo[2.2.]octan-1-amine], for which the IC50 was 7 nM.

`Cc1cc(N2CCc3c(c(C)nn3CC34CCC(N5C[C@@H](O)[C@@H](O)C5)(CC3)CC4)C2)c2cnn(C)c2n1` [compound 74, (3S,4R)-1-(4-((5-(1,6-dimethyl-1H-pyrazolo[3,4-b]pyridin-4-yl)-3-methyl-4,5,6,7-tetrahydro-1H-pyrazolo[4,3-c]pyridin-1-yl)methyl)bicyclo[2.2.2]octan-1-yl)pyrrolidine-3,4-diol]: the IC50 was 7 nM.

As for `Cc1cc(N2CCc3c(c(C)nn3CC34CCC(N)(CC3)CC4)C2)c2cnn(C)c2n1` [Compound No. 1, 4-((5-(1,6-dimethyl-1H-pyrazolo[3,4-b]pyridin-4-yl)-3-methyl-4,5,6,7-tetrahydro-1H-pyrazolo[4,3-c]pyridin-1-yl)methyl)bicyclo[2.2.2]octan-1-amine], the IC50 is 25 nM.

Regarding `Cc1cc(N2CCc3c(c(C)nn3CC34CCC(NC5CCC5)(CC3)CC4)C2)c2cnn(C)c2n1` [compound 54, N-cyclobutyl-4-((5-(1,6-dimethyl-1H-pyrazolo[3,4-b]pyridin-4-yl)-3-methyl-4,5,6,7-tetrahydro-1H-pyrazolo[4,3-c]pyridin-1-yl)methyl)bicyclo[2.2.2]octan-1-amine], the IC50 turned out to be 4 nM.

`COCCNC12CCC(Cn3nc(C)c4c3CCN(c3cc(C)nc5c3cnn5C)C4)(CC1)CC2` [Compound No. 69, 4-((5-(1,6-dimethyl-1H-pyrazolo[3,4-b]pyridin-4-yl)-3-methyl-4,5,6,7-tetrahydro-1H-pyrazolo[4,3-c]pyridin-1-yl)methyl)-N-(2-methoxyethyl)bicyclo[2.2.2]octan-1-amine]: the IC50 worked out at 9 nM.
